# Measurements as given in US7250432B2, “Pharmaceutical compositions of diaryl-isoxazole derivatives for the prevention and treatment of cancers” (Korea Research Institute of Bioscience and Biotechnology, priority 2003, dated 2007).
# How the values were obtained:
# [1] = tested on: breast cancer cell line (MDA-MB-231); experiment: Analysis of cell migration (modified Boyden chamber); format: cell-based; settings: for Cell migration inhibition rate / inhibition at 1 µM / inhibition at 10 µM: breast cancer cells, 18 hours; for inhibition at 1 µM / inhibition at 10 µM: read-out: Cell migration inhibition rate
# Experimental: In order to investigate cell migration, modified Boyden chamber and 8 μm pore membrane were purchased from Neuro probe Co. and staining solution for cell staining, Giemsa solution, was purchased from Sigma Co. Other instruments used were CO2 incubator for cell culture, centrifuge for cell washing and inverted microscope (TE 300, Nikon, Japan) for observation.
# Particularly, 90% grown up cells on a culture plate were isolated using trypsin/EDTA. The cells were treated with soybean trypsin inhibitor, and washed with serum free medium three times. Then, cell density was adjusted to 4×10^5 cells/ml. The compounds of Example 1-6 and a medium supplemented with 10% FBS were put by 30 μl each in a chamber well of the bottom of modified Boyden chamber, on which 8 μm pore membrane was put. Silicon gasket was placed over and finally a top plate was put on the gasket and fastened with a nut. The cultured cells were put in a well of top plate by 50 μl. The chamber was rapped and further cultured in a 37° C. 5% CO2 incubator for 18 hours.
# 18 hours later, the nut was taken out. Membrane was separated and fixed in methanol for 10 minutes, followed by drying in the air. After membrane was completely dried, it was stained in Giemsa solution for 90 minutes. At that time, the staining solution was diluted with distilled water at the ratio of 1:10 before use. Upon competing staining, the membrane was dipped in distilled water for about 10 seconds for washing. The membrane was put on a cover slip with a part having cells not shifted heading up and scrubbed with a cotton swab carefully. Manicure was put on the edge of the cover slip, which was then fixed well on a slide glass. The number of migrated cells on the sample prepared above was investigated under inverted microscope.
# Cell migration inhibition rate (%)=100−[Number of migrated cells treated with test samples/Number of migrated cells of control]×100
# For a control group, only 1% dimethyl sulfoxide […]) was added instead of a compound of the present invention.
# HUVEC = experiment: in vitro endothelial morphogenesis assay (tube formation); format: cell-based, human
# Experimental: Angiogenesis inhibition activity of the compound of the present invention was investigated by in vitro endothelial morphogenesis assay using human originated cell line HUVEC.
# 24-well cell culture plate and matrigel matrix were purchased from BD biosciences Co. Other instruments used for the experiments were CO2 incubator for cell culture and inverted microscope (TE 300, Nikon, Japan) equipped with a digital camera for observation and confirmation of the result.
# Particularly, starvation of HUVECs on a serum free medium was performed for overnight. Each well of 24-well cell culture plate was coated with 0.2 Ml of matrigel matrix, which was cultured in a 37° C. incubator for 1 hour. 0.2 Ml of cell culture solution with the cell density of 20000 was put in each well, which was further cultured in a CO2 incubator for 30 minutes. Then, a fresh medium, which was diluted with different concentrations of the compounds of Example 1-6, was given to each well. 1% serum was added to the wells, followed by further culture for 24 hours. Tube formation by HUVECs is observed. In this invention, inhibition of tube formation by the compound of the present invention was observed under inverted microscope, and the results were shown in FIG. 2 and FIG. 3. […]
# zebrafish = experiment: Angiogenesis inhibition in zebrafish embryos (subintestinal vessels); format: in vivo; settings: FIG. 4
# Experimental: Experimental instruments used for the invention were temperature-controlled incubator for the incubation of embryo and inverted microscope (TE 300, Nikon, Japan) equipped with a digital camera for observation and confirmation for the results.
# Embryos of zebrafish were loaded on a 96-well plate by three embryos per well. The embryos were confirmed to be synchronized embryos which means one day has passed after development. The compounds of the present invention were dissolved in 0.1% DMSO to prepare different concentrations for each compound. Each compound was treated to 4 wells and inhibition of subintestinal vessels (SIVs) in 12 embryos was investigated. To prepare a control, 8 wells were treated with 0.1% DMSO (in embryo water: 0.2 g/l instant ocean salt) (Randall T. Peterson, et al, Proc. Natl. Aced. Sci. USA, 2000, 97: 12965).
# For the observation of angiogenic vessels (SIVs), an rmmunological approach of Catherine E. Willet, et al. (Catherine E. Willet, et al., Angiogenesis, 1999, 3: 353), was used in the present invention. Particularly, three days after development, an embryo was fixed in 4% paraformaldehyde at room temperature for 2 hours. The embryo was washed twice with PBS, and dehydrated step by step with PBS, 25%, 50%, 75% and 100% methanol. Then, the embryo was rehydrated step by step with 100%, 75%, 50% and 25% methanol and PBS. […]
# [2] = Acute oral toxicity test in rats; format: in vivo
# Experimental: 6-week old SPF (specific pathogen-free) SD line rats were used in the acute toxicity test. Compound 1 of the present invention was suspended in 0.5% methylcellulose solution and orally administered once to 2 rats per group. Death, clinical symptoms, and weight change in rats were observed, hematological tests and biochemical tests of blood were performed, and any abnormal signs in the gastrointestinal organs of chest and abdomen were checked with eyes during autopsy.
# [3] = Homo sapiens, MDA-MB-231, 10 uM
compound,measurement,setting,value
"5-(2,4-dimethoxy-5-ethylphenyl)-4-(4-bromophenyl)isoxazole [Example 2]",Cell migration inhibition rate,[1]; 1 uM,90.80%
same,Cell migration inhibition rate,[1]; 10 uM,94.80%
"CCc1cc(-c2oncc2-c2ccc(OC)cc2)c(O)cc1OC [Example 1, 5-(5-ethyl-2-hydroxy-4-methoxyphenyl)-4-(4-methoxyphenyl)isoxazole]",inhibition at 1 µM,"[1]; Homo sapiens, MDA-MB-231, 1 uM",92.3%
same,inhibition at 10 µM,[1]; [3],94.5%
same,inhibition at 0.05 µM,"[1]; Homo sapiens, 50 nM, MDA-MB-231, FIG. 1",≤ 50%
same,inhibition of tube formation in vascular endothelial cells,"HUVEC; 0.01 μM, FIG. 2",already detected
same,inhibition of tube formation in vascular endothelial cells,"HUVEC; 1 μM, FIG. 3",inhibited tube formation
same,inhibition of angiogenesis in zebrafish,zebrafish; 0.5 μM,inhibited angiogenesis
same,inhibition at 0.5 µM,"zebrafish; Danio rerio, 500 nM",≤ 50%
same,LD50,"[2]; SD, rat, in vivo, rats, oral, read-out: estimated LD50",> 1500 mg/kg
same,"clinical symptoms, weight change, death","[2]; rat, in vivo, po","did not cause any specific clinical symptoms, weight change, or death"
same,"hematological tests, biochemical tests of blood, autopsy","[2]; rat, in vivo, po",No change was observed
same,level up to which no toxic change was caused,"[2]; rats, single oral administration",≤ 1000 mg/kg
"CCc1cc(-c2oncc2-c2ccc(OC)cc2)c(OC)cc1OC [Example 3, 5-(2,4-dimethoxy-5-ethylphenyl)-4-(4-methoxyphenyl)isoxazole]",inhibition at 1 µM,"[1]; Homo sapiens, MDA-MB-231, 1 uM",68.4%
same,inhibition at 10 µM,[1]; [3],82.5%
"CCc1cc(-c2oncc2-c2ccc(OC)cc2)c(OCc2ccccc2)cc1OC [Example 4, 5-(2-benzyloxy-5-ethyl-4-methoxyphenyl)-4-(4-methoxyphenyl)isoxazole]",inhibition at 1 µM,"[1]; Homo sapiens, MDA-MB-231, 1 uM",54.6%
same,inhibition at 10 µM,[1]; [3],70.1%
"CCc1cc(-c2oncc2-c2ccc(O)cc2)c(O)cc1OC [Example 5, 5-(5-ethyl-2-hydroxy-4-methoxyphenyl)-4-(4-hydroxyphenyl)isoxazole]",inhibition at 1 µM,"[1]; Homo sapiens, MDA-MB-231, 1 uM",43.5%
same,inhibition at 10 µM,[1]; [3],43.3%
"CCc1cc(-c2oncc2-c2ccc(O)cc2)c(O)cc1O [Example 6, 5-(2,4-dihydroxy-5-ethylphenyl)-4-(4-hydroxyphenyl)isoxazole]",inhibition at 1 µM,"[1]; Homo sapiens, MDA-MB-231, 1 uM",79.5%
same,inhibition at 10 µM,[1]; [3],79.4%
